# Measured values published in US11034725B2, “Compositions and methods for treating cardiovascular disease” (Genentech, Inc., priority 2016, dated 2021).
# Where two headings read alike, the source gives them in different places. Numbered stars: 1 amine (or outer) side, 2 acyl side, 3 side chain; on linkers, the order of the positions; unused ones are H or OH. Bridge positions count the residues as written; N and C are the ends. Square brackets hold non-standard residues; d marks the D form. Peptide text beside a SMILES is read from it. * marks the point of attachment. Propanoyl(3-(3-pyridyl)) = O=C(CCc1cccnc1)*; Desaminohistidyl = O=C(CCc1c[nH]cn1)*; X21 = O=C([C@@H]1C[C@@H]1c1cccnc1)*; X44 = Cn1cc([C@H]2C[C@H]2C(=O)*)cn1; X5 = Cn1cc([C@@H]2C[C@H]2C(=O)*)cn1; X14 = O=C(CC1CCN([*:1])CC1)[*:2]; hArg = N=C(N)NCCCC[C@H](N)C(=O)O; X24 = CN1CCC(n2cc(C(=O)*)cn2)C1; X3 = O=C(CC1CCN(Cc2ccccn2)CC1)*; X13 = O=C(CCN1CCS(=O)(=O)CC1)*; X34 = NC(=O)N1CCN(CCC(=O)*)CC1; X6 = O=C(Cn1ccc(=O)[nH]c1=O)*; X8 = O=C(c1ccc(N2CCOCC2)nc1)*; X38 = O=C(CC1CCS(=O)(=O)C1)*; X19 = Cc1cc(C)n(CCC(=O)*)n1; X33 = CN1CCN(CCC(=O)*)CC1; X26 = O=C1CCCN1CCC(=O)*; X32 = O=C(CCN1CCOCC1)*; X23 = NC(=O)NCCC(=O)*; X41 = O=C(CCn1cncn1)*; Ms = CS(=O)(=O)*
# Assays:
# PCSK9Δhelix = molecular target: T1, PCSK9Δhelix (Homo sapiens, UniProt Q8NBP7); assay: PCSK9Δhelix/Ab20 TR-FRET binding assay; details: TR-FRET, read-out: PCSK9Δhelix/Ab20 IC50
# T1 construct: Human PCSK9 construct M1-Q692 with an engineered TEV site (residue deletion Y166, R167); made in house; host or cells: CHO
# PCSK9 = PCSK9 (Homo sapiens, UniProt Q8NBP7); assay: PCSK9/EGF(A) TR-FRET binding assay; details: TR-FRET; Table 8E, additional compounds; read-out: PCSK9/EGF(A) IC50
# Protocol: The former was based on a TF-FRET assay to measure the association of the EGF(A) domain of the LDLR to PCSK9 (“PCSK9/EGF(A) binding assay”) whilst the latter was based on a TR-FRET assay to measure binding of Ab20 to PCSK9Δhelix (“PCSK9Δhelix/Ab20 binding assay”).
# The ability of compounds to inhibit binding to PCSK9 was evaluated with a panel of time-resolved fluorescence resonance energy transfer (TR-FRET) binding assays. […] The PCSK9Δhelix/Ab20 binding assay evaluated the ability of compounds to compete with Ab20 for binding to the N-terminal groove region in a His-tagged, PCSK9Δhelix construct. […] Signal generation in the PCSK9 binding assays was dependent upon the binding interaction to bring into close proximity the His-tag on the PCSK9 and the Fc-tag on the ligand. Anti-His-APC was bound to the His-tag, and anti-Fc-europium was bound to the Fc-tag. When these two antibodies were in close proximity and were irradiated with light at 340 nm, the europium was excited and emitted energy at 615 nm. This energy was taken up by the APC and was emitted as light at 665 nm. Compounds that competed with the ligand reduced the energy transfer and thus the emission at 665 nm. In the His-EGFA-Fc molecule in the counterscreen, the two tags were always in close proximity, thus any reduction in emission at 665 nm was due to interference with the detection system.
# Compounds were solubilized and dilutions were prepared in DMSO. […] The plate was centrifuged to mix the well contents and allowed to incubate for 30 min. […] The TR-FRET signal was read on a ViewLux reader (PerkinElmer) with excitation at 340 nm and emission at 615 and 665 nm with a 50-μs time delay between excitation and measurement of emission. The TR-FRET ratio was calculated as the fluorescence emission at 665 nm divided by the fluorescence emission at 615 nm. The normalized TR-FRET ratios were plotted as a function of the compound concentrations, and the IC50 values were determined using a 4-parameter logistic regression.
# In black 1536-well assay plates (MaKO, Aurora® Microplates, Whitefish, Mont.), 40 nL of peptide in DMSO were preincubated with 2 μL His-tagged PCSK9 plus anti-His-allophycocyanin in assay buffer (50 mM Tris-HCl, pH 7.5, 150 mM NaCl, 2 mM CaCl2, 0.01% Tween®-20, 0.1% bovine gamma globulins, and protease inhibitor cocktail) for 30 min. Then 2 μL of Fc-tagged ligand and anti-Fc-europium in assay buffer were added and allowed to incubate for 2 h.
# [1] = Table 8D, disulfide-cyclized extension peptides
# PCSK9, sequence (Q8NBP7 153-692): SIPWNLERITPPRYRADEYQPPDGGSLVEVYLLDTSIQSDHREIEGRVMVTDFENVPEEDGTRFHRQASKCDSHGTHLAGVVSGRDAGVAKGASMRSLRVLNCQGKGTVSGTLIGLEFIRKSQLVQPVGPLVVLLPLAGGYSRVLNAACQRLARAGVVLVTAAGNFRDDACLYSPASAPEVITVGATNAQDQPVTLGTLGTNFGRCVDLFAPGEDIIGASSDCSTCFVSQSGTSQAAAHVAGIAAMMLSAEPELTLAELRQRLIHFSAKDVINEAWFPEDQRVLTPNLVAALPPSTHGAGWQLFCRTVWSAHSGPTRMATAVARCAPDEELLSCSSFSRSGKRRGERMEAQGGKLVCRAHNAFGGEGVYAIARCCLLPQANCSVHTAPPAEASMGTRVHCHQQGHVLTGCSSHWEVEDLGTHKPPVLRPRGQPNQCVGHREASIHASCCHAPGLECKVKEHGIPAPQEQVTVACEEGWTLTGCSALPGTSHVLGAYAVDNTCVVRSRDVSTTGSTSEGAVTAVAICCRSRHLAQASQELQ
# PCSK9, sequence (Q8NBP7 31-152 partner limits assumed): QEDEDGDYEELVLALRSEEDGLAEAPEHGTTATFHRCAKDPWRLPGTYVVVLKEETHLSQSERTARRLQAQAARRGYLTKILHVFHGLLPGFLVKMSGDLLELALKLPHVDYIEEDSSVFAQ
# T1 sequence (Q8NBP7 with tags, fused parts or gaps limits assumed): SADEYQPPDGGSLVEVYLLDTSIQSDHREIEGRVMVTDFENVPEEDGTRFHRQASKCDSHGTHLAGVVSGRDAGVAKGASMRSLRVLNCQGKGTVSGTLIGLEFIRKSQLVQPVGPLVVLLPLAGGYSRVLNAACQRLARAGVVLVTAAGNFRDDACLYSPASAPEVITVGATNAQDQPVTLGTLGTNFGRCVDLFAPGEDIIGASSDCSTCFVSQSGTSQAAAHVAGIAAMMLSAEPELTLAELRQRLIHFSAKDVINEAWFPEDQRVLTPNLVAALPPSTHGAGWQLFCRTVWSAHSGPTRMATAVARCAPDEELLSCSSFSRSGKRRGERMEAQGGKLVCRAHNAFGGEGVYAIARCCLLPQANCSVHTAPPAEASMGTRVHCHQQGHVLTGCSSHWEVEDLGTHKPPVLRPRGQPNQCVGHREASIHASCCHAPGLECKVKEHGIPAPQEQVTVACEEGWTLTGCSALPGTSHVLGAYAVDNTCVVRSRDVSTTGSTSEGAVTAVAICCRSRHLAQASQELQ
# T1 sequence (Q8NBP7 31-152 partner limits assumed): as the sequence (Q8NBP7 31-152 partner limits assumed) above
Structure (SMILES),IC50 (PCSK9Δhelix; [1]) [µM],IC50 (PCSK9) [µM],"IC50 (PCSK9Δhelix; Table 8E, additional compounds) [µM]"
CC[C@H](C)[C@@H]1NC(=O)[C@H](CCCNC(=N)N)NC(=O)[C@H](CCCCN)NC(=O)[C@H](CC(C)C)NC(=O)[C@H](CC(N)=O)NC(=O)[C@H](Cc2c[nH]c3ccccc23)NC(=O)[C@H](CC(C)C)NC(=O)[C@@H](NC(=O)[C@@H](N)Cc2c[nH]c3ccccc23)CSSC[C@@H](C(=O)N[C@@H](Cc2c[nH]c3ccccc23)C(=O)N[C@@H](Cc2ccccc2)C(=O)O)NC(=O)[C@H](CCC(N)=O)NC(=O)[C@H](CO)NC(=O)CNC1=O [Compound 66] (H-WCLWNLKRIGSQCWF-OH; disulfide 2-13),12,–,–
CC[C@H](C)[C@@H]1NC(=O)[C@H](CCCNC(=N)N)NC(=O)[C@H](CCCCN)NC(=O)[C@H](CC(C)C)NC(=O)[C@H](CC(N)=O)NC(=O)[C@H](Cc2c[nH]c3ccccc23)NC(=O)[C@H](CC(C)C)NC(=O)[C@@H](NC(=O)[C@H](Cc2c[nH]c3ccccc23)NC(C)=O)CSSC[C@@H](C(=O)N[C@@H](Cc2c[nH]c3ccccc23)C(=O)N[C@@H](Cc2ccccc2)C(=O)O)NC(=O)[C@H](CCC(N)=O)NC(=O)[C@H](CO)NC(=O)CNC1=O [Compound 90] (Ac-WCLWNLKRIGSQCWF-OH; disulfide 2-13),7.38,–,–
CC[C@H](C)[C@H](NC(=O)[C@H](CCCNC(=N)N)NC(=O)[C@@H](NC(=O)[C@H](CC(C)C)NC(=O)[C@H](CC(N)=O)NC(=O)[C@H](Cc1c[nH]c2ccccc12)NC(=O)CCN1CCS(=O)(=O)CC1)C(C)C)C(=O)NCC(=O)N[C@@H](CC(C)C)C(=O)N[C@@H](CC(C)C)C(=O)N[C@@H](CCCNC(=N)N)C(N)=O [Compound 126] (X13-WNLVRIGLLR-NH2),–,≥ 50,19
CC[C@H](C)[C@H](NC(=O)[C@H](CCCNC(=N)N)NC(=O)[C@@H](NC(=O)[C@H](CC(C)C)NC(=O)[C@H](CC(N)=O)NC(=O)[C@H](Cc1c[nH]c2ccccc12)NC(=O)[C@@H]1C[C@H]1c1cnn(C)c1)C(C)C)C(=O)NCC(=O)N[C@@H](CC(C)C)C(=O)N[C@@H](CC(C)C)C(=O)N[C@@H](CCCNC(=N)N)C(N)=O [Compound 127] (X5-WNLVRIGLLR-NH2),–,≥ 50,29
CC[C@H](C)[C@H](NC(=O)[C@H](CCCNC(=N)N)NC(=O)[C@@H](NC(=O)[C@H](CC(C)C)NC(=O)[C@H](CC(N)=O)NC(=O)[C@H](Cc1c[nH]c2ccccc12)NC(=O)CCN1CCCC1=O)C(C)C)C(=O)NCC(=O)N[C@@H](CC(C)C)C(=O)N[C@@H](CC(C)C)C(=O)N[C@@H](CCCNC(=N)N)C(N)=O [Compound 128] (X26-WNLVRIGLLR-NH2),–,≥ 50,7.5
CC[C@H](C)[C@H](NC(=O)[C@H](CCCNC(=N)N)NC(=O)[C@@H](NC(=O)[C@H](CC(C)C)NC(=O)[C@H](CC(N)=O)NC(=O)[C@H](Cc1c[nH]c2ccccc12)NC(=O)c1cnn(C2CCN(C)C2)c1)C(C)C)C(=O)NCC(=O)N[C@@H](CC(C)C)C(=O)N[C@@H](CC(C)C)C(=O)N[C@@H](CCCNC(=N)N)C(N)=O (stereo partly drawn) [Compound 129] (X24-WNLVRIGLLR-NH2),–,≥ 50,23
CC[C@H](C)[C@H](NC(=O)[C@H](CCCNC(=N)N)NC(=O)[C@@H](NC(=O)[C@H](CC(C)C)NC(=O)[C@H](CC(N)=O)NC(=O)[C@H](Cc1c[nH]c2ccccc12)NC(=O)CC1CCN(Cc2ccccn2)CC1)C(C)C)C(=O)NCC(=O)N[C@@H](CC(C)C)C(=O)N[C@@H](CC(C)C)C(=O)N[C@@H](CCCNC(=N)N)C(N)=O [Compound 130] (X3-WNLVRIGLLR-NH2),–,≥ 50,8.6
CC[C@H](C)[C@H](NC(=O)[C@H](CCCNC(=N)N)NC(=O)[C@@H](NC(=O)[C@H](CC(C)C)NC(=O)[C@H](CC(N)=O)NC(=O)[C@H](Cc1c[nH]c2ccccc12)NC(=O)CCN1CCN(C(N)=O)CC1)C(C)C)C(=O)NCC(=O)N[C@@H](CC(C)C)C(=O)N[C@@H](CC(C)C)C(=O)N[C@@H](CCCNC(=N)N)C(N)=O [Compound 131] (X34-WNLVRIGLLR-NH2),–,≥ 50,6.7
CC[C@H](C)[C@H](NC(=O)[C@H](CCCNC(=N)N)NC(=O)[C@@H](NC(=O)[C@H](CC(C)C)NC(=O)[C@H](CC(N)=O)NC(=O)[C@H](Cc1c[nH]c2ccccc12)NC(=O)CCc1c[nH]cn1)C(C)C)C(=O)NCC(=O)N[C@@H](CC(C)C)C(=O)N[C@@H](CC(C)C)C(=O)N[C@@H](CCCNC(=N)N)C(N)=O [Compound 132] (Desaminohistidyl-WNLVRIGLLR-NH2),–,≥ 50,9
CC[C@H](C)[C@H](NC(=O)[C@H](CCCNC(=N)N)NC(=O)[C@@H](NC(=O)[C@H](CC(C)C)NC(=O)[C@H](CC(N)=O)NC(=O)[C@H](Cc1c[nH]c2ccccc12)NC(=O)CC1CCN(S(C)(=O)=O)CC1)C(C)C)C(=O)NCC(=O)N[C@@H](CC(C)C)C(=O)N[C@@H](CC(C)C)C(=O)N[C@@H](CCCNC(=N)N)C(N)=O [Compound 133] (Ms-[X14]WNLVRIGLLR-NH2),–,≥ 50,17
CC[C@H](C)[C@H](NC(=O)[C@H](CCCNC(=N)N)NC(=O)[C@@H](NC(=O)[C@H](CC(C)C)NC(=O)[C@H](CC(N)=O)NC(=O)[C@H](Cc1c[nH]c2ccccc12)NC(=O)c1ccc(N2CCOCC2)nc1)C(C)C)C(=O)NCC(=O)N[C@@H](CC(C)C)C(=O)N[C@@H](CC(C)C)C(=O)N[C@@H](CCCNC(=N)N)C(N)=O [Compound 134] (X8-WNLVRIGLLR-NH2),–,≥ 50,4.2
CC[C@H](C)[C@H](NC(=O)[C@H](CCCNC(=N)N)NC(=O)[C@@H](NC(=O)[C@H](CC(C)C)NC(=O)[C@H](CC(N)=O)NC(=O)[C@H](Cc1c[nH]c2ccccc12)NC(=O)[C@@H]1C[C@@H]1c1cnn(C)c1)C(C)C)C(=O)NCC(=O)N[C@@H](CC(C)C)C(=O)N[C@@H](CC(C)C)C(=O)N[C@@H](CCCNC(=N)N)C(N)=O [Compound 135] (X44-WNLVRIGLLR-NH2),–,≥ 50,10
CC[C@H](C)[C@H](NC(=O)[C@H](CCCNC(=N)N)NC(=O)[C@@H](NC(=O)[C@H](CC(C)C)NC(=O)[C@H](CC(N)=O)NC(=O)[C@H](Cc1c[nH]c2ccccc12)NC(=O)CCn1nc(C)cc1C)C(C)C)C(=O)NCC(=O)N[C@@H](CC(C)C)C(=O)N[C@@H](CC(C)C)C(=O)N[C@@H](CCCNC(=N)N)C(N)=O [Compound 136] (X19-WNLVRIGLLR-NH2),–,≥ 50,9
CC[C@H](C)[C@H](NC(=O)[C@H](CCCNC(=N)N)NC(=O)[C@@H](NC(=O)[C@H](CC(C)C)NC(=O)[C@H](CC(N)=O)NC(=O)[C@H](Cc1c[nH]c2ccccc12)NC(=O)CCN1CCOCC1)C(C)C)C(=O)NCC(=O)N[C@@H](CC(C)C)C(=O)N[C@@H](CC(C)C)C(=O)N[C@@H](CCCNC(=N)N)C(N)=O [Compound 137] (X32-WNLVRIGLLR-NH2),–,≥ 50,6.7
CC[C@H](C)[C@H](NC(=O)[C@H](CCCNC(=N)N)NC(=O)[C@@H](NC(=O)[C@H](CC(C)C)NC(=O)[C@H](CC(N)=O)NC(=O)[C@H](Cc1c[nH]c2ccccc12)NC(=O)CCc1cccnc1)C(C)C)C(=O)NCC(=O)N[C@@H](CC(C)C)C(=O)N[C@@H](CC(C)C)C(=O)N[C@@H](CCCNC(=N)N)C(N)=O [Compound 138] ({Propanoyl(3-(3-pyridyl))}-WNLVRIGLLR-NH2),–,48,4.9
CC[C@H](C)[C@H](NC(=O)[C@H](CCCNC(=N)N)NC(=O)[C@@H](NC(=O)[C@H](CC(C)C)NC(=O)[C@H](CC(N)=O)NC(=O)[C@H](Cc1c[nH]c2ccccc12)NC(=O)CC1CCS(=O)(=O)C1)C(C)C)C(=O)NCC(=O)N[C@@H](CC(C)C)C(=O)N[C@@H](CC(C)C)C(=O)N[C@@H](CCCNC(=N)N)C(N)=O (stereo partly drawn) [Compound 139] (X38-WNLVRIGLLR-NH2),–,≥ 50,19
CC[C@H](C)[C@H](NC(=O)[C@H](CCCNC(=N)N)NC(=O)[C@@H](NC(=O)[C@H](CC(C)C)NC(=O)[C@H](CC(N)=O)NC(=O)[C@H](Cc1c[nH]c2ccccc12)NC(=O)CCN1CCN(C)CC1)C(C)C)C(=O)NCC(=O)N[C@@H](CC(C)C)C(=O)N[C@@H](CC(C)C)C(=O)N[C@@H](CCCNC(=N)N)C(N)=O [Compound 140] (X33-WNLVRIGLLR-NH2),–,≥ 50,26
CC[C@H](C)[C@H](NC(=O)[C@H](CCCNC(=N)N)NC(=O)[C@@H](NC(=O)[C@H](CC(C)C)NC(=O)[C@H](CC(N)=O)NC(=O)[C@H](Cc1c[nH]c2ccccc12)NC(=O)CCNC(N)=O)C(C)C)C(=O)NCC(=O)N[C@@H](CC(C)C)C(=O)N[C@@H](CC(C)C)C(=O)N[C@@H](CCCNC(=N)N)C(N)=O [Compound 141] (X23-WNLVRIGLLR-NH2),–,≥ 50,36
CC[C@H](C)[C@H](NC(=O)[C@H](CCCNC(=N)N)NC(=O)[C@@H](NC(=O)[C@H](CC(C)C)NC(=O)[C@H](CC(N)=O)NC(=O)[C@H](Cc1c[nH]c2ccccc12)NC(=O)CCn1cncn1)C(C)C)C(=O)NCC(=O)N[C@@H](CC(C)C)C(=O)N[C@@H](CC(C)C)C(=O)N[C@@H](CCCNC(=N)N)C(N)=O [Compound 142] (X41-WNLVRIGLLR-NH2),–,≥ 50,15
CC[C@H](C)[C@H](NC(=O)[C@H](CCCNC(=N)N)NC(=O)[C@@H](NC(=O)[C@H](CC(C)C)NC(=O)[C@H](CC(N)=O)NC(=O)[C@H](Cc1c[nH]c2ccccc12)NC(=O)Cn1ccc(=O)[nH]c1=O)C(C)C)C(=O)NCC(=O)N[C@@H](CC(C)C)C(=O)N[C@@H](CC(C)C)C(=O)N[C@@H](CCCNC(=N)N)C(N)=O [Compound 143] (X6-WNLVRIGLLR-NH2),–,≥ 50,23
CC[C@H](C)[C@H](NC(=O)[C@H](CCCCNC(=N)N)NC(=O)[C@@H](NC(=O)[C@H](CC(C)C)NC(=O)[C@H](CC(N)=O)NC(=O)[C@H](Cc1c[nH]c2ccccc12)NC(=O)[C@@H]1C[C@@H]1c1cccnc1)C(C)C)C(=O)NCC(=O)N[C@@H](CC(C)C)C(=O)N[C@@H](CC(C)C)C(=O)N[C@@H](CCCNC(=N)N)C(N)=O [Compound 221] (X21-WNLV[hArg]IGLLR-NH2),–,9.5,–
